{
  "source": "patent US20260256741A1",
  "about": "“ANTICANCER MALEIMIDE DERIVATIVES FOR USE WITH IMMUNE CHECKPOINT BLOCKADE” (BROWN UNIVERSITY, priority 2022, published 2026)",
  "key": {"[1]": {"test_system": "HT-29 CRC cells", "experiment": "Western blot analysis of HT-29 CRC cells", "assay_type": "cell-based, human", "method": "Recombinant Human TNF-α (Cat #300-01A, PeproTech, Rocky Hill, NJ, USA) and Recombinant Human IFN-γ (Cat #300-02, Peprotech, Rocky Hill, NJ, USA) were purchased for use in western blot analysis while rhTRAIL was generated in-house. Kim et al., J Biol Chem., 279(38):40044-52 (2004).\n(§1) Cells were plated in a 6-well plate and incubated overnight before the spent media was replaced with drugged media. Drug treatment lasted for indicated durations. Protein was extracted using radioimmunoprecipitation (RIPA) assay buffer (Cat #R0278, Sigma-Aldrich, St. Louis, MO) containing cOmplete™, Mini, EDTA-free Protease Inhibitor Cocktail (Cat #4693159001, Roche, Basel, Switzerland) from sub-confluent cells. Denaturing sample buffer was added, samples were boiled at 95 degrees for 10 minutes, and an equal amount of protein lysate was electrophoresed through NuPAGE™ 4 to 12%, Bis-Tris, 1.5 mm, Mini Protein Gels (Invitrogen, Waltham, MA) then transferred to PVDF membranes. The PVDF membrane was blocked with 5% non-fat milk (Sigma-Aldrich, St. Louis, MO) in 1×TTBS. Primary antibodies were incubated with the transferred PVDF membrane in blocking buffer at 4° C. overnight. Secondary antibodies used included Goat anti-Rabbit IgG (H+L) Secondary Antibody, HRP (Cat #31460, Invitrogen, Waltham, MA), and Goat anti-Mouse IgG (H+L) Secondary Antibody, HRP (Cat #31430, Invitrogen, Waltham, MA). Signal was detected using Pierce™ ECL Western Blotting Substrate (Cat #32106, Thermo Scientific, Waltham, MA, USA) and a Syngene Imaging System (RRID: SCR_015770)."}, "[2]": {"test_system": "NK-92 cells", "experiment": "Cytokine profiling of cell culture supernatant (Luminex 200), NK-92", "assay_type": "cell-based, human", "method": "Cells were plated at 3.5×10^4 cells in a 48-well plate (Thermo Fisher Scientific, Waltham, MA, USA) in complete medium and incubated at 37° C. with 5% CO2. At 24 hours after plating, almost all the tumor cells were adherent to the bottom of the flask and the complete medium was replaced with the drug-containing medium. […] On the day of analysis, samples were thawed and centrifuged to remove cellular debris.\n(§2) Human cell line culture supernatants were analyzed using an R&D systems Human Premixed Multi-Analyte Kit (R&D Systems, Inc., Minneapolis, MN, USA) and a Luminex 200 (RRID: SCR_018025) Instrument (LX200-XPON-RUO, Luminex Corporation, Austin, TX, USA) according to the manufacturer's instructions. Sample levels of TNF-α, 4-1BB/TNFRSF9/CD137, IL-8/CXCL8, Ferritin, IFN-β, IL-10, CCL2/JE/MCP-1, VEGF, CXCL13/BLC/BCA-1, IFN-γ, CCL20/MIP-3 α, CCL3/MIP-1 α, CCL22/MDC, CCL4/MIP-1 β, Fas Ligand/TNFSF6, IL-17/IL-17A, IL-2, BAFF/BLyS/TNFSF13B, GM-CSF, CXCL5/ENA-78, TRANCE/TNFSF11/RANK L, CXCL9/MIG, G-CSF, IFN-γ R1/CD119, VEGFR3/Flt-4, C-Reactive Protein/CRP, CXCL11/I-TAC, IL-21, CXCL14/BRAK, IL-6, Fas/TNFRSF6/CD95, TRAIL R3/TNFRSF10C, IL-4, CCL5/RANTES, PD-L1/B7-H1, CCL7/MCP-3/MARC, Chitinase 3-like 1, CXCL10/IP-10/CRG-2, IL-1 β/IL-1F2, IL-7, Prolactin, CCL8/MCP-2, TRAIL R2/TNFRSF10B, M-CSF, IL-15, Granzyme B, IFN-α, TREM-1, IL-12/IL-23 p40, TRAIL/TNFSF10, CCL11/Eotaxin, and IL-18/IL-1F4. Quantitative analysis with 6 standards and a minimum of 50 counts per bead region was used with the Luminex to generate analyte values reported as picograms/milliliter (pg/mL). Sample concentrations less than the lower limit of detection for each particular analyte were recoded as the lower limit value divided by ten. Sample concentrations above the upper limit of detection for a particular analyte were recoded as the upper limit of detection."}, "[3]": {"test_system": "TALL-104 cells", "experiment": "Western blot analysis of TALL-104 immune cells", "assay_type": "cell-based, human", "method": "as §1"}, "[4]": {"test_system": "TALL-104 cells", "experiment": "Microarray gene expression analysis, TALL-104", "assay_type": "cell-based, human", "method": "A total of 0.5×10^6 tumor cells (HCT-116, HT-29, KM12C) were plated in a 6-well plate and allowed to adhere overnight before 24-hour treatment as indicated. 1×10^6 immune cells (NK92, TALL-104) were plated and treated with elraglusib as indicated for 24 hours. RNA was isolated from cell pellets in batches of 6 using an RNeasy Plus Mini Kit (Cat #74134, Qiagen, Hilden, Germany). Acceptable RNA concentration and quality were verified with Nanodrop and Bioanalyzer measurements. GeneChip™ Human Transcriptome Array 2.0 assays were conducted according to manufacturer instructions in two batches using randomized samples to limit batch effects (Cat #902162, Applied Biosystems, Waltham, MA, USA). Applied Biosystems Transcriptomic Analysis Console (TAC) software (RRID: SCR_016519) was used to calculate fold changes in gene expression relative to the untreated control cells. Values were considered statistically significant for p values <0.05."}, "[5]": {"experiment": "Patient plasma cytokine profiling (Luminex 200), Phase 1 trial", "assay_type": "in vivo, human", "method": "as §2, with “Sample concentrations above the upper limit of detection for a particular analyte were recoded as the upper limit of detection.” left out"}, "[6]": {"conditions": "especially at later timepoints (48, 72 hr)"}, "[7]": {"conditions": "as treatment duration increased (0-72 hours)"}, "[8]": {"conditions": "immune cell lysates, cell line not given, 0-72 hours"}},
  "data": [
    {"compound": "Cn1cc(C2=C(c3coc4ccc(F)cc34)C(=O)NC2=O)c2cc3c(cc21)OCO3", "note": "[elraglusib, 3-(5-fluorobenzofuran-3-yl)-4-(5-methyl-5H-[1,3]dioxolo[4,5-f]indol-7-yl)-1H-pyrrole-2,5-dione]", "values": [
      {"measurement": "NF-κB p65 expression", "setting": "[1]; as the 0-72 hour time-course progressed", "result": "decreased expression"},
      {"measurement": "PD-L1 expression", "setting": "[1]; as the treatment duration increased (0-72 hours)", "result": "increases in PD-L1 expression"},
      {"measurement": "Bcl-2 protein expression", "setting": "[1]; [6]", "result": "decreases in protein expression"},
      {"measurement": "Survivin protein expression", "setting": "[1]; [6]", "result": "decreases in protein expression"},
      {"measurement": "cleaved PARP (cPARP)", "setting": "[1]; low dose as in co-culture assays, until the 48-hour timepoint of 72-hour timecourse", "result": "little to no cleaved PARP"},
      {"measurement": "IFN-γ concentration in supernatant", "setting": "[2]; 1 μM, 48 hours", "result": "increases"},
      {"measurement": "TRAIL concentration in supernatant", "setting": "[2]; 1 μM, 48 hours", "result": "increases"},
      {"measurement": "secreted granzyme B concentration", "setting": "[2]; 1 μM, 48 hours", "result": "decreases"},
      {"measurement": "IFN-γ in cell culture supernatant", "setting": "[2]; 24 hours treatment vs DMSO", "result": "significant increase in IFN-γ"},
      {"measurement": "NF-κB protein", "setting": "[3]; [7]", "result": "did not notice significant changes"},
      {"measurement": "survival protein Bcl-2", "setting": "[3]; [7]", "result": "did not notice significant changes"},
      {"measurement": "NF-κB-inducing kinase (NIK)", "setting": "[3]; [8]", "result": "increases"},
      {"measurement": "survival protein Survivin", "setting": "[3]; [8]", "result": "increases"},
      {"measurement": "CCL3 gene expression fold change", "setting": "[4]; 24 hours vs DMSO", "result": 1.52, "unit": "FC"},
      {"measurement": "KIF7 gene expression fold change", "setting": "[4]; 24 hours vs DMSO", "result": 1.56, "unit": "FC"},
      {"measurement": "PTPN3 gene expression fold change", "setting": "[4]; 24 hours vs DMSO", "result": "−1.56", "unit": "FC"},
      {"measurement": "differentially expressed genes post-treatment", "setting": "[4]; IC-50 concentration (1 μM), 24 hours, FC cutoff >1.5, <−1.5, p<0.05", "result": 64},
      {"measurement": "plasma cytokines, chemokines and growth factors (many of the analytes) vs baseline", "setting": "[5]; 8- and 24-hours post-dose", "result": "upregulated"},
      {"measurement": "plasma expression of many of the analytes in the panel", "setting": "[5]; patients receiving a 7 mg/kg dose, 8- and 24-hour post-dose", "result": "increased expression"}
    ]}
  ]
}
